Assay [1] has as its target Neuronal acetylcholine receptor subunit alpha-7 (Homo sapiens, UniProt P36544). Kind of assay: Displacement of [3H]Epibatidine from human alpha7 nACHR expressed in CHO cell membranes after 2 hrs by liquid scintillation counting analysis.
In assay [2] the target is T1, Neuronal acetylcholine receptor; alpha3/beta4 (Homo sapiens, UniProt P30926+P32297). Description: Displacement of [3H]Epibatidine from human alpha3beta4 nACHR expressed in CHO cell membranes after 2 hrs by liquid scintillation counting analysis. On the technique in general: In a radioligand displacement assay an active substance lowers the binding of a labelled ligand.
T1 sequence (P30926 whole entry): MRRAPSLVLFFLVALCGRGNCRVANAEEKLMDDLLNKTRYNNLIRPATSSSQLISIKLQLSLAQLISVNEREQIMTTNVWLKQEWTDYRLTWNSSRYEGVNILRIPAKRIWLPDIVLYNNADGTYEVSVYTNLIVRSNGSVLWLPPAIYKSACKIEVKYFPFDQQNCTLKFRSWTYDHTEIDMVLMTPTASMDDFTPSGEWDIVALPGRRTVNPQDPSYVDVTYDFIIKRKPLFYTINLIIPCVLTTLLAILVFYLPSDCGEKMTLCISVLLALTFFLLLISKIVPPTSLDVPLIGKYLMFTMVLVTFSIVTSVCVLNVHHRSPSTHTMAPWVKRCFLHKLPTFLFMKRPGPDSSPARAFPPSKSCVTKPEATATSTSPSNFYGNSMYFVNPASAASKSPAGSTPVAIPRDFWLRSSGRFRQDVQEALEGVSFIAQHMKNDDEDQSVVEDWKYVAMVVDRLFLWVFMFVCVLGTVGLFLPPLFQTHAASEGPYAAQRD
T1 sequence (P32297 whole entry): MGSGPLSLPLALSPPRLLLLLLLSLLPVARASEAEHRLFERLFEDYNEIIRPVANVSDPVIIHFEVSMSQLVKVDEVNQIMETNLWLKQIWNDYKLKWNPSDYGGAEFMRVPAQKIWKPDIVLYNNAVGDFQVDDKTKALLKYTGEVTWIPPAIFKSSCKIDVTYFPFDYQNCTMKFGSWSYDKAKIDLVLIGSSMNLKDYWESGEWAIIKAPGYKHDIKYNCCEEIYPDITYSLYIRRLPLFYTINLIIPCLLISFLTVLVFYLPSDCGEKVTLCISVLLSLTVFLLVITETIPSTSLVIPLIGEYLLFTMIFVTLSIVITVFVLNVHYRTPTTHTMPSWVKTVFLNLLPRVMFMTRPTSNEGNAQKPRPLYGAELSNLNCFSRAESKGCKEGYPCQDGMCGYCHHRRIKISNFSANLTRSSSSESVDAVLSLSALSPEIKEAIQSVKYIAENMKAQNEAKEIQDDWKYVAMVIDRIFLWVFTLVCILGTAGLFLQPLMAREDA

Assay [3] has as its system Rattus norvegicus. Description: Cognitive enhancing effect in rat at 0.1 to 3 mg/kg, po by novel object recognition test. The class given is functional, organism-based.
The target in assay [4] is T1, Neuronal acetylcholine receptor; alpha3/beta4. Description: Agonist activity at human alpha3beta4 nACHR expressed in CHO cell membranes assessed as stimulation of calcium flux by FLIPR assay relative to control. The class given is cell-based. Background: Calcium flux is commonly read through the fluorescence of an indicator in the cells.
Assay [5] concerns Rattus norvegicus. Kind of assay: Cognitive enhancing effect in rat at 0.003 mg/kg, po by novel object recognition test. It counts as functional, organism-based. Set-up: dose 0.003 mg/kg.
In assay [6] the target is T2, Neuronal acetylcholine receptor; alpha4/beta2 (Homo sapiens, UniProt P17787+P43681). Description: Agonist activity at alpha4beta2 nACHR in human SHEP1 cell membranes assessed as stimulation of calcium flux by FLIPR assay. The class given is cell-based.
T2 sequence (P17787 whole entry): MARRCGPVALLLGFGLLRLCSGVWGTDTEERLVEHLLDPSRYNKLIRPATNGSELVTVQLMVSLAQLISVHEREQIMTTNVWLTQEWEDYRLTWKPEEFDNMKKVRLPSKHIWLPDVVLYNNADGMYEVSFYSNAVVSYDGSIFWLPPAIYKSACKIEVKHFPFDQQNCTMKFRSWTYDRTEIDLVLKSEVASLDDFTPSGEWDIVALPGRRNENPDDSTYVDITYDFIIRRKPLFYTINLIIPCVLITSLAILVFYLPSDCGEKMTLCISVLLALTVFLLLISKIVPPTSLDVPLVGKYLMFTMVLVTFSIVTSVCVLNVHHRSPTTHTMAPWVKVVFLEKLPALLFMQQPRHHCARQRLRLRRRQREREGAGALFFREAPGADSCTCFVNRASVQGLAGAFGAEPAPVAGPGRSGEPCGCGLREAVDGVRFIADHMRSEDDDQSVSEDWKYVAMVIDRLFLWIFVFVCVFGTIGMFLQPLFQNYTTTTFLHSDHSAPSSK
T2 sequence (P43681 whole entry): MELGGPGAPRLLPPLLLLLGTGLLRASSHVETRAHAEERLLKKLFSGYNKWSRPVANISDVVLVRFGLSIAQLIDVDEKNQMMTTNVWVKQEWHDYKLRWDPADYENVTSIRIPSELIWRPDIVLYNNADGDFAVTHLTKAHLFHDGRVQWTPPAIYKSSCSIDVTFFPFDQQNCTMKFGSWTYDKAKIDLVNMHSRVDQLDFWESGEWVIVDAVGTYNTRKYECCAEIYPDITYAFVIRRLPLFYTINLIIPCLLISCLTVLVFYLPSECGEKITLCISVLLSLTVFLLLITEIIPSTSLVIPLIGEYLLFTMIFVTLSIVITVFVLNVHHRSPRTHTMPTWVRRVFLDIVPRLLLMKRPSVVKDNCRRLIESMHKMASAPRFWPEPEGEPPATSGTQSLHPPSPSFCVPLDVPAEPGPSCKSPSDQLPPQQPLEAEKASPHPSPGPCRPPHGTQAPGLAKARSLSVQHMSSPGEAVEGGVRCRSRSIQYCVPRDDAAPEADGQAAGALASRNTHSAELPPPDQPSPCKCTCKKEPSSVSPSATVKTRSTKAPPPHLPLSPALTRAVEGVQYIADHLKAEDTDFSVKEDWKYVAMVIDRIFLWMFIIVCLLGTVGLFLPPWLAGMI
For assay [7], the target named is T2, Neuronal acetylcholine receptor; alpha4/beta2. Description: Agonist activity at alpha4beta2 nACHR in human SHEP1 cell membranes assessed as stimulation of calcium flux by FLIPR assay relative to control. The class given is cell-based.
Assay [8] concerns the target T1, Neuronal acetylcholine receptor; alpha3/beta4. Kind of assay: Agonist activity at human alpha3beta4 nACHR expressed in CHO cell membranes assessed as stimulation of calcium flux by FLIPR assay. The class given is cell-based.
The target in assay [9] is T2, Neuronal acetylcholine receptor; alpha4/beta2. Description: Displacement of [3H]Nicotine from alpha4beta2 nACHR in human SHEP1 cell membranes after 2 hrs by liquid scintillation counting analysis.

Data on one molecule can be found in ChEMBL document CHEMBL2407030, “Novel nicotinic acetylcholine receptor agonists containing carbonyl moiety as a hydrogen bond acceptor” (Bioorg Med Chem Lett, 2013).

In general, Ki refers to a dissociation constant, usually derived from enzyme kinetics or from competition with a known ligand. A low value points to a stronger hold on the target. Usually Emax stands for the maximal effect, on the per cent scale that the assay sets. In general, EC50 refers to the midpoint of the concentration-response curve.

The structures appear in SMILES notation. Activity calls are given as the source filed them. The rule behind the calls is not given here.

Sequence of Neuronal acetylcholine receptor subunit alpha-7 (P36544 whole entry): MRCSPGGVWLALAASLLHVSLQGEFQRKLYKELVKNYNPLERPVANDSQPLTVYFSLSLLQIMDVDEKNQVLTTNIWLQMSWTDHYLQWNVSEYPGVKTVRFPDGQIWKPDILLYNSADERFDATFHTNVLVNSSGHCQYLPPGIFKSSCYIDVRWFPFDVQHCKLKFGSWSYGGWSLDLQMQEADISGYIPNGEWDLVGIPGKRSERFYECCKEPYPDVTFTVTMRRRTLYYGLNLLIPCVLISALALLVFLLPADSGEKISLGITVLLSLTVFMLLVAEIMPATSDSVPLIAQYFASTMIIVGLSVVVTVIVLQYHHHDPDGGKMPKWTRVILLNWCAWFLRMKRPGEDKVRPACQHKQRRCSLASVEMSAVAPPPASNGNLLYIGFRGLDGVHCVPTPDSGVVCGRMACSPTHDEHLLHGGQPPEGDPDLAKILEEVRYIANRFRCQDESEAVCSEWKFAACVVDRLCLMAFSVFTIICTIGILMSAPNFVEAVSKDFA

As for `CCC(=O)N1CC2CNCC2C1` (mixture of isomers), the Ki in [1] amounted to 4 µM; in [2] it was 2.1 µM; in [9], 0.012 µM. In addition, the outcome with Rattus norvegicus [3] and in the assay on Rattus norvegicus [5] was Active. For the same molecule, the Emax in assay [4] came to 130%; in [7] it was 120%. Also, the EC50 was 1.3 µM in assay [6] and 18 µM in [8].
